PubChem BioAssay AID342 (DTP/NCI, 2004)
Several values for one entry are separate records, joined by “and”; a condition that tells them apart may be missing. Equal values may be shown once.

Test system: Swiss mice, Sarcoma 180 sc, mean tumor weight T/C
Experiment: NCI In Vivo Anticancer Drug Screen. Data for tumor model Sarcoma 180 (subcutaneous) in Swiss mice
Settings: endpoint: mean tumor weight, higher = larger tumour
Procedure, shortened: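 Readout is the ratio of treated-group measurement to vehicle-control measurement (T/C), based on survival or tumor size in mice carrying transplanted tumors.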

C[C@]12CCC(=O)C=C1CC[C@@H]1[C@@H]2[C@@H](O)C[C@@]2(C)[C@H]1CC[C@]2(O)C(=O)CF was tested, and the T/C (dose: 25.0 mg/kg/injection, schedule: Q#A X014 (sc), vehicle: steriod suspending solution) was 55 % of control, the T/C (dose: 125.0 mg/kg/injection, schedule: Q#A X014 (sc), vehicle: steriod suspending solution) was 43 % of control and the T/C (dose: 148.0 mg/kg/injection, schedule: Q01DX007 (sc), vehicle: steriod suspending solution) was 36 % of control. For the same compound, the T/C (dose: 222.0 mg/kg/injection, schedule: Q01DX007 (sc), vehicle: saline) was 26 % of control, the T/C (dose: 222.0 mg/kg/injection, schedule: Q01DX007 (sc), vehicle: steriod suspending solution) was 19 % of control and the T/C (dose: 250.0 mg/kg/injection, schedule: Q#A X014 (sc), vehicle: steriod suspending solution) was 43 % of control. The T/C (dose: 333.0 mg/kg/injection, schedule: Q01DX007 (sc), vehicle: saline) was 25 % of control, the T/C (dose: 500.0 mg/kg/injection, schedule: Q01DX007 (sc), vehicle: saline) was 21 % of control and the T/C (dose: 750.0 mg/kg/injection, schedule: Q01DX007 (sc), vehicle: saline) was 20 % of control. For the same compound, the T/C (dose: 1125.0 mg/kg/injection, schedule: Q01DX007 (sc), vehicle: steriod suspending solution) was 13 % of control.
O=C(Nc1ccc(C2=NCCCN2)cc1)c1ccc(NC(=O)c2ccc(C3=NCCCN3)cc2)cc1 was tested, and the T/C (dose: 8.0 mg/kg/injection, schedule: Q01DX007 (ip), vehicle: carboxymethylcellulose (CMC)) was 78 % of control and the T/C (dose: 16.0 mg/kg/injection, schedule: Q01DX007 (ip), vehicle: carboxymethylcellulose (CMC)) was 73 % of control.
For COC1C(OC(=O)/C=C/C=C/C=C/C=C/C(=O)O)CCC2(CO2)C1C1(C)OC1CC=C(C)C (configuration not stated), the T/C (dose: 2.5 mg/kg/injection, schedule: Q#A X014 (ip), vehicle: saline) was 70 % of control, the T/C (dose: 5.0 mg/kg/injection, schedule: Q#A X014 (ip), vehicle: methylcellulose (MC)) was 76 % of control and the T/C (dose: 5.0 mg/kg/injection, schedule: Q#A X014 (ip), vehicle: saline) was 54 % of control. For the same compound, the T/C (dose: 6.0 mg/kg/injection, schedule: Q01DX007 (ip), vehicle: carboxymethylcellulose (CMC)) was 62 % of control, the T/C (dose: 6.3 mg/kg/injection, schedule: Q01DX007 (ip), vehicle: carboxymethylcellulose (CMC)) was 58 % of control and the T/C (dose: 10.0 mg/kg/injection, schedule: Q#A X014 (ip), vehicle: methylcellulose (MC)) was 50 % of control. The T/C (dose: 10.0 mg/kg/injection, schedule: Q#A X014 (ip), vehicle: saline) was 58 % of control, the T/C (dose: 12.0 mg/kg/injection, schedule: Q01DX007 (ip), vehicle: carboxymethylcellulose (CMC)) was 60 % of control and the T/C (dose: 12.5 mg/kg/injection, schedule: Q01DX007 (ip), vehicle: carboxymethylcellulose (CMC)) was 84 % of control. For the same compound, the T/C (dose: 20.0 mg/kg/injection, schedule: Q#A X014 (ip), vehicle: methylcellulose (MC)) was 50 % of control, the T/C (dose: 20.0 mg/kg/injection, schedule: Q#A X014 (ip), vehicle: saline) was 51 % of control and the T/C (dose: 25.0 mg/kg/injection, schedule: Q01DX007 (ip), vehicle: carboxymethylcellulose (CMC)) was 41 % of control and 53 % of control and 63 % of control. For the same compound, the T/C (dose: 40.0 mg/kg/injection, schedule: Q#A X014 (ip), vehicle: methylcellulose (MC)) was 38 % of control, the T/C (dose: 40.0 mg/kg/injection, schedule: Q#A X014 (ip), vehicle: saline) was 39 % of control and the T/C (dose: 80.0 mg/kg/injection, schedule: Q#A X014 (ip), vehicle: methylcellulose (MC)) was 19 % of control. For the same compound, the T/C (dose: 200.0 mg/kg/injection, schedule: Q01DX007 (ip), vehicle: carboxymethylcellulose (CMC)) was 17 % of control and 36 % of control.
With CN(/N=N/c1nc[nH]c1C(N)=O)c1ccccc1 the T/C (dose: 15.5 mg/kg/injection, schedule: Q#A X014 (ip), vehicle: methylcellulose (MC)) was 89 % of control, the T/C (dose: 31.0 mg/kg/injection, schedule: Q#A X014 (ip), vehicle: methylcellulose (MC)) was 99 % of control and the T/C (dose: 62.5 mg/kg/injection, schedule: Q#A X014 (ip), vehicle: methylcellulose (MC)) was 46 % of control.
For CCSc1nc(Cl)cc(Sc2nc(N)nc3nc[nH]c23)n1, the T/C (dose: 9.0 mg/kg/injection, schedule: Q01DX007 (ip), vehicle: other) was 75 % of control, the T/C (dose: 18.0 mg/kg/injection, schedule: Q01DX007 (ip), vehicle: methylcellulose (MC)) was 91 % of control and the T/C (dose: 18.0 mg/kg/injection, schedule: Q01DX007 (ip), vehicle: other) was 116 % of control. The T/C (dose: 36.0 mg/kg/injection, schedule: Q01DX007 (ip), vehicle: methylcellulose (MC)) was 95 % of control, the T/C (dose: 72.0 mg/kg/injection, schedule: Q01DX007 (ip), vehicle: methylcellulose (MC)) was 76 % of control and the T/C (dose: 72.0 mg/kg/injection, schedule: Q01DX007 (ip), vehicle: other) was 32 % of control. The T/C (dose: 124.0 mg/kg/injection, schedule: Q01DX007 (ip), vehicle: carboxymethylcellulose (CMC)) was 73 % of control, the T/C (dose: 144.0 mg/kg/injection, schedule: Q01DX007 (ip), vehicle: methylcellulose (MC)) was 44 % of control and 57 % of control and the T/C (dose: 188.0 mg/kg/injection, schedule: Q01DX007 (ip), vehicle: carboxymethylcellulose (CMC)) was 44 % of control. For the same compound, the T/C (dose: 277.0 mg/kg/injection, schedule: Q01DX007 (ip), vehicle: carboxymethylcellulose (CMC)) was 47 % of control, the T/C (dose: 281.0 mg/kg/injection, schedule: Q01DX007 (ip), vehicle: carboxymethylcellulose (CMC)) was 76 % of control and the T/C (dose: 288.0 mg/kg/injection, schedule: Q01DX007 (ip), vehicle: methylcellulose (MC)) was 52 % of control and 61 % of control. The T/C (dose: 422.0 mg/kg/injection, schedule: Q01DX007 (ip), vehicle: carboxymethylcellulose (CMC)) was 35 % of control and 40 % of control, the T/C (dose: 435.0 mg/kg/injection, schedule: Q01DX007 (ip), vehicle: methylcellulose (MC)) was 100 % of control and the T/C (dose: 630.0 mg/kg/injection, schedule: Q01DX007 (ip), vehicle: carboxymethylcellulose (CMC)) was 37 % of control. For the same compound, the T/C (dose: 945.0 mg/kg/injection, schedule: Q01DX007 (ip), vehicle: carboxymethylcellulose (CMC)) was 47 % of control.
